Experimental data reported in patent US20240360144A1, “PYRAZOLOPYRIMIDINE ESTER COMPOUND” (Shanghai Maius Pharmaceutical Co. Ltd., priority 2021, published 2024).
Read-outs that look alike come from different tables or passages of the source.

Experiment: Pharmacokinetic assays of compounds after oral gavage administration to rats
Assay type: in vivo, male SD rats
Set-up: AUMC(0-t) / AUMC(0-∞): unit not given here
Conditions: for AUC as percentage of that of 4-AAM administered at the same molar amount: relative to 4-AAM directly administered
Protocol: Example 13: Pharmacokinetic Assays of Compounds
Instruments: ultra high performance liquid chromatography (Acquity UPLC, Waters) system; triple quadrupole mass spectrometer (Qtrap 5500, Sciex); high-speed refrigerated centrifuge (5430R, Eppendorf).
Chromatography Conditions: Column: Waters BEH C18 2.1×50 mm ([…]); Column Temperature: 45° C.; Mobile Phase: 0.1% aqueous solution of formic acid (A)/acetonitrile; Gradient: see Table 2 below: […]
Mass Spectrometry Condition: Mode: positive ion multiple reaction monitoring (MRM); Curtain Gas: 45 psi; Gas 1: 45 psi; Gas 2: 45 psi; Ion Source Temperature: 500° C.; Ion Source Voltage: 5000 V.
Experimental Animals: male SD rats, weighing 200-240 grams, fasting overnight before experiments.
Each suspension is prepared before administration.
Each sample was placed in an ice bath, centrifuged for plasma collection, frozen and stored.
Plasma Drug Concentration Data and Calculation of Pharmacokinetic Parameters:
Plasma drug concentration data was processed using MultiQuan 3.0 (Sciex), and pharmacokinetic parameters were calculated using the DAS 2.0 software. Plasma drug concentrations were measured in ug/L.

[1] = male SD rats, oral gavage, 30.0 mg/kg, suspension in 0.5% CMC-Na, plasma

SMILES	AUC(0-t) [1] [ng·h/mL]	AUC(0-∞) [1] [ng·h/mL]	AUMC(0-t) [1]	AUMC(0-∞) [1]	CLz/F [1] [mL/min/kg]	Cmax [1] [ng/mL]	MRT(0-t) [1] [h]	MRT(0-∞) [1] [h]	Tmax [1] [h]	VRT(0-t) [1] [h^2]	VRT(0-∞) [1] [h^2]	t½z [1] [h]	mean retention time (rats, oral gavage) [h]	time to peak concentration (rats, oral gavage) [h]	AUC compared with 4-AAM administered at the same molar amount (rats, oral gavage, in words)	AUC as percentage of that of 4-AAM administered at the same molar amount (rats, oral gavage) [%]	further results
C=CC(=O)N1CCC[C@@H](n2nc(-c3ccc(Oc4ccccc4)cc3)c3c(NC(=O)OCCCC)ncnc32)C1 [Compound 3]	1366.7	1375.6	3939.9	4052.0	363	304.4	2.9	2.9	2.0	3.3	3.8	1.3	2.9	2	much greater AUC	180	hydrolysis in the blood plasma into the 4-amino active metabolite (4-AAM) (rats, after oral absorption, in words): highest rate
C=CC(=O)N1CCC[C@@H](n2nc(-c3ccc(Oc4ccccc4)cc3)c3c(N)ncnc32)C1 [Compound 4-AAM, 1-[(3R)-3-[4-amino-3-(4-phenoxyphenyl)-1H-pyrazolo[3,4-D]pyrimidin-1-yl]-1-piperidinyl]-2-propen-1-one, reference compound]			1316.6	2805.6						2.0	47.6	8.9					AUC(0-inf) (rat, male SD rats, oral gavage, 30.0 mg/kg, suspension in 0.5% CMC-Na, plasma): 822 ng·h/mL; AUC(0-t) (rat, male SD rats, oral gavage, 30.0 mg/kg, suspension in 0.5% CMC-Na, plasma, read-out: AUC(0-t)): 758 ng·h/mL; Cmax (rat, male SD rats, oral gavage, 30.0 mg/kg, suspension in 0.5% CMC-Na, plasma, read-out: Cmax): 312 ng/mL; MRT last (rat, male SD rats, oral gavage, 30.0 mg/kg, suspension in 0.5% CMC-Na, plasma, read-out: MRT(0-t)): 1.7 h; MRT inf (rat, male SD rats, oral gavage, 30.0 mg/kg, suspension in 0.5% CMC-Na, plasma, read-out: MRT(0-∞)): 3.4 h
C=CC(=O)N1CCC[C@@H](n2nc(-c3ccc(Oc4ccccc4)cc3)c3c(NC(=O)OC(C)C)ncnc32)C1 [Compound 1]	1038.6	1059.6	2950.4	3200.9	472	257.2	2.8	3.0	1.0	4.6	6.3	1.7	2.8	1	much greater AUC		
C=CC(=O)N1CCC[C@@H](n2nc(-c3ccc(Oc4ccccc4)cc3)c3c(NC(=O)OCCC)ncnc32)C1 [Compound 2]	663.0	706.3	2844.3	3495.04	708	111.0	4.29	4.9	2.0	7.2	13.5	2.338	4.3	2		88	

Further lines, with some results ahead:

AUC(0-t) [1] [ng·h/mL]	AUC(0-∞) [1] [ng·h/mL]	AUMC(0-t) [1]	AUMC(0-∞) [1]	CLz/F [1] [mL/min/kg]	Cmax [1] [ng/mL]	MRT(0-t) [1] [h]	MRT(0-∞) [1] [h]	Tmax [1] [h]	VRT(0-t) [1] [h^2]	VRT(0-∞) [1] [h^2]	t½z [1] [h]	mean retention time (rats, oral gavage) [h]	time to peak concentration (rats, oral gavage) [h]	AUC compared with 4-AAM administered at the same molar amount (rats, oral gavage, in words)	AUC as percentage of that of 4-AAM administered at the same molar amount (rats, oral gavage) [%]	SMILES	further results
964.1	976.4	2405.5	2586.7	512	256.7	2.5	2.6	2.0	2.9	4.8	2.5	2.5	2	much greater AUC	127	C=CC(=O)N1CCC[C@@H](n2nc(-c3ccc(Oc4ccccc4)cc3)c3c(NC(=O)OCC(C)C)ncnc32)C1 [Compound 4]	
584.0	587.1	1659.5	1696.7	852	143.9	2.8	2.9	2.0	3.0	3.5	1.3					C=CC(=O)N1CCC[C@@H](n2nc(-c3ccc(Oc4ccccc4)cc3)c3c(NC(=O)OCCCCCC)ncnc32)C1 [Compound 5]	
